Source: patent US20060089407A1, “Methods for Making and Using Synergistic Multifunctional Compositions” (NATIONAL RESEARCH LABORATORIES, LTD., priority 2004, published 2006)

Assays:
normal cells = conditions: cited from earlier work
viruses = conditions: cited from earlier work

SMILES | anti-inflammatory performance (inflammatory processes) | toxicity to normal cells (normal cells) | anti-viral activity (viruses)
O=C([O-])CC([O-])(CC(=O)[O-])C(=O)[O-].[Cu+2].[Na+].[Na+] [MCC, disodium monocopper (II) citrate dihydrate] | demonstrated utility on relieving inflammatory processes |  | 
CC(=O)[O-].CC(=O)[O-].[Zn+2] [zinc acetate] |  | quite toxic to normal cells | very toxic to viruses
